Test results published in patent publication US10457709B2, “Antimicrobial peptides, their variants and uses” (priority 2015, dated 2019).
≈ marks a conversion by molar mass, not a printed value. Square brackets hold non-standard residues; d marks the D form. Ends that are not written are not given here. Peptide text beside a SMILES is read from it.

Tests used:
[1] = test system: C. parapsilosis clinical strains; experiment: MIC, clinical yeast strains; type: cell-based, Candida parapsilosis; parameters: unit: µg/ml
Description: (§1) Minimum inhibition concentrations (MICs) were determined against Escherichia coli (ATCC 25922), Staphylococcus aureus (ATCC 25923), Klebsiella pneumoniae (ATCC 10031) and Pseudomonas aeruginosa (ATCC 27853). Also clinical strains of E. coli, K. pneumoniae, E. cloacae, P. aeruginosa, Serratia marcescens, Proteus mirabilis, S. pneumoniae, Acinetobacter baumannii, A. johnsonii and S. aureus were used for MICs assays. Additionally, clinical strains of yeast including Candida albicans, C. glabrata, C. parapsilosis and C. quillermondiae were used. The susceptibility of these microorganisms to Chain peptides were determined using micro broth dilution assay. Colonies of the respective microorganism from Muller Hinton (MH) agar plates incubated overnight were suspended in MH broth media and final concentration of microorganism was adjusted to 5.0×10^5 cfu/ml. An aliquot of 10 μl of each Chain peptide, or gentamicin, tetracycline as reference antibiotics were added in differing concentrations along with 90 μl of bacterial suspension to 96 well polypropylene plates and incubated at 37° C. for 20 to 24 hours. Concentrations of Chain peptides and reference antibiotics ranged from 0.125 to 128 μg/ml and the MICs were recorded as the lowest concentration with no visual growth of bacteria. Similarly, antifungal MICs were tested in Potato dextrose broth.
(§2) Clinical strains of yeasts including Candida albicans, C. glabrata, C. parapsilosis and C. quillermondiae were also tested with the 12 Chain peptides. The minimum inhibitory concentration (MICs) varied between these peptides and are presented in Tables 4a, 4b, 4c and 5a, 5b, 5c. Peptides Chain 105, 201 and 308 are broad spectrum antimicrobials with MICs between 0.5-32 μg/ml against all the bacteria and yeasts tested, except Serratia marcescens and Proteus mirabilis, against which the MICs were between 64-128 μg/ml. Peptide Chain 306 has narrow spectrum activity against E. coli at 1 μg/ml and for the rest of the bacterial strains at >32 μg/ml (FIG. 10c).

[2] = test system: Serratia marcescens clinical strains; type: cell-based; details: clinical strains
Description: as §1, §2

[3] = test system: Staphylococcus aureus clinical strains; type: cell-based; details: clinical strains
Description: as §1, §2

[4] = test system: Acinetobacter baumannii clinical strains; type: cell-based; details: clinical strains
Description: as §1, §2

[5] = test system: Streptococcus pneumoniae clinical strains; type: cell-based; details: clinical strains
Description: as §1, §2

[6] = test system: Proteus mirabilis clinical strains; type: cell-based; details: clinical strains
Description: as §1, §2

[7] = test system: Enterobacter cloacae clinical strains; type: cell-based; details: clinical strains
Description: as §1, §2

[8] = test system: C. glabrata clinical strains; experiment: MIC, clinical yeast strains; type: cell-based, Candida glabrata; parameters: unit: µg/ml
Description: as §1, §2

[9] = test system: Candida albicans clinical strains; experiment: MIC, clinical yeast strains; type: cell-based; parameters: unit: μg/ml
Description: as §1, §2

[10] = test system: C. quillermondiae clinical strains; experiment: MIC, clinical yeast strains; type: cell-based, Candida quillermondiae; parameters: unit: μg/ml; details: C. quillermondiae clinical yeast strain 1
Description: as §1, §2

[11] = test system: Acinetobacter johnsonii clinical strains; type: cell-based; details: clinical strain 1; D-form peptides; MH broth-cation adjusted, 0.02% BSA, 0.2% acetic acid
Description: as §1, §2

[12] = test system: Escherichia coli clinical strains; type: cell-based; details: clinical strains
Description: as §1, §2

[13] = test system: all the bacteria and yeasts tested; type: cell-based
Description: as §1, §2

[14] = test system: Klebsiella pneumoniae clinical strains; type: cell-based; details: clinical strains
Description: as §1, §2

[15] = test system: Pseudomonas aeruginosa clinical strains; type: cell-based; details: clinical strains
Description: as §1, §2

S. aureus [16] = details: ATCC 25923
Description: as §1

E. coli = details: ATCC 25922
Description: as §1

[17] = test system: Staphylococcus aureus (ATCC 25923); experiment: microbe, parasite or virus in culture; type: cell-based; details: ATCC 25923
Description: as §1

[18] = test system: Escherichia coli (ATCC 25922); experiment: microbe, parasite or virus in culture; type: cell-based; details: ATCC 25922
Description: as §1

[19] = test system: Klebsiella pneumoniae (ATCC 10031); experiment: microbe, parasite or virus in culture; type: cell-based; details: ATCC 10031
Description: as §1

[20] = test system: Pseudomonas aeruginosa (ATCC 27853); experiment: microbe, parasite or virus in culture; type: cell-based; details: ATCC 27853
Description: as §1

S. aureus [21] = experiment: Antibacterial activity analysis of En-MAP1 protein; type: cell-based, Staphylococcus aureus
Description: Both folded and unfolded proteins were tested for antibacterial activity against S. aureus by pipetting 10 μg of protein on the S. aureus culture on an LB plate. The activity was also tested in folded and unfolded protein digested with trypsin in 0.01% acetic acid at concentrations of 30 and 60 μg/ml.
The gene En-MAP1 was then cloned into the expression plasmid pET23(b) to analyze whether the antibacterial activity was due to the protein itself. The resulting construct pET23(b)-FosS1A contained the En-MAP1 gene in-frame. When transformed into E. coli expression strain BL21 (DE3) pLyseS and BL21 (DE3) pRARE, a protein of approximately 63 kDa (predicted mass 63.3 kDa) was produced in the cell extracts of induced, but not in the uninduced cultures. The resulting protein includes the amino acid sequence […]- prior to the first amino acid of the protein sequence. The protein was expressed in both strains as inclusion bodies and they were purified and folded in a His-Trap column, resulting in about ˜1 mg of pure folded protein.

CC[C@@H](C)[C@@H](NC(=O)[C@@H](CCSC)NC(=O)[C@@H](C)NC(=O)[C@@H](CCCNC(=N)N)NC(=O)[C@@H](Cc1c[nH]c2ccccc12)NC(=O)[C@@H](CCCCN)NC(=O)[C@H](N)CCCNC(=N)N)C(=O)N[C@H](CCCNC(=N)N)C(=O)N[C@H](CC(C)C)C(=O)N[C@H](Cc1c[nH]cn1)C(=O)N[C@H](C)C(=O)N[C@H](CCCCN)C(=O)N[C@H](Cc1c[nH]c2ccccc12)C(=O)N[C@H](CC(C)C)C(=O)N[C@H](CCCNC(=N)N)C(=O)N[C@H](CCCCN)C(=O)O [Chain105D] (H-[dR][dK][dW][dR][dA][dM][dI][dR][dL][dH][dA][dK][dW][dL][dR][dK]-OH)
Minimum inhibitory concentration ([1]; C. parapsilosis clinical yeast strain 1): 8 | Minimum inhibitory concentration ([1]; C. parapsilosis clinical yeast strain 2): 8 | Minimum inhibitory concentration ([1]; C. parapsilosis clinical yeast strain 3): 8 | Minimum inhibitory concentration ([1]; C. parapsilosis clinical yeast strain 4): 4 | MIC, Serratia marcescens strain 1 [2]: 128 µg/mL (≈ 59.5 µM) | MIC, Serratia marcescens strain 2 [2]: 128 µg/mL (≈ 59.5 µM) | MIC, Serratia marcescens strain 3 [2]: 128 µg/mL (≈ 59.5 µM) | MIC, Serratia marcescens strain 4 [2]: 128 µg/mL (≈ 59.5 µM) | MIC, Serratia marcescens strain 5 [2]: 128 µg/mL (≈ 59.5 µM) | MICs against Serratia marcescens [2]: 64 to 128 µg/mL | MIC, Staphylococcus aureus strain 1 [3]: 2 µg/mL (≈ 0.93 µM) | MIC, Staphylococcus aureus strain 2 [3]: 2 µg/mL (≈ 0.93 µM) | MIC, Staphylococcus aureus strain 3 [3]: 2 µg/mL (≈ 0.93 µM) | MIC, Staphylococcus aureus strain 4 [3]: 2 µg/mL (≈ 0.93 µM) | MIC, Staphylococcus aureus strain 5 [3]: 2 µg/mL (≈ 0.93 µM) | MIC, Acinetobacter baumannii strain 1 [4]: 4 µg/mL (≈ 1.86 µM) | MIC, Acinetobacter baumannii strain 2 [4]: 4 µg/mL (≈ 1.86 µM) | MIC, Acinetobacter baumannii strain 3 [4]: 4 µg/mL (≈ 1.86 µM) | MIC, Acinetobacter baumannii strain 4 [4]: 2 µg/mL (≈ 0.93 µM) | MIC, Acinetobacter baumannii strain 5 [4]: 4 µg/mL (≈ 1.86 µM) | MIC, Streptococcus pneumoniae strain 1 [5]: 4 µg/mL (≈ 1.86 µM) | MIC, Streptococcus pneumoniae strain 2 [5]: 2 µg/mL (≈ 0.93 µM) | MIC, Streptococcus pneumoniae strain 3 [5]: 2 µg/mL (≈ 0.93 µM) | MIC, Streptococcus pneumoniae strain 4 [5]: 4 µg/mL (≈ 1.86 µM) | MIC, Streptococcus pneumoniae strain 5 [5]: 2 µg/mL (≈ 0.93 µM) | MIC, Proteus mirabilis strain 1 [6]: >128 µg/mL | MIC, Proteus mirabilis strain 2 [6]: 32 µg/mL (≈ 14.9 µM) | MIC, Proteus mirabilis strain 3 [6]: 64 µg/mL (≈ 29.8 µM) | MIC, Proteus mirabilis strain 4 [6]: >128 µg/mL | MIC, Proteus mirabilis strain 5 [6]: >128 µg/mL | MICs against Proteus mirabilis [6]: 64 to 128 µg/mL | MIC, Enterobacter cloacae strain 1 [7]: 2 µg/mL (≈ 0.93 µM) | MIC, Enterobacter cloacae strain 2 [7]: 2 µg/mL (≈ 0.93 µM) | MIC, Enterobacter cloacae strain 3 [7]: 2 µg/mL (≈ 0.93 µM) | MIC, Enterobacter cloacae strain 4 [7]: 2 µg/mL (≈ 0.93 µM) | MIC, Enterobacter cloacae strain 5 [7]: 1 µg/mL (≈ 0.465 µM) | Minimum inhibitory concentration ([8]; C. glabrata clinical yeast strain 1): 16 | Minimum inhibitory concentration ([8]; C. glabrata clinical yeast strain 2): 16 | Minimum inhibitory concentration ([8]; C. glabrata clinical yeast strain 3): 8 | Minimum inhibitory concentration ([8]; C. glabrata clinical yeast strain 4): 32 | Minimum inhibitory concentration ([9]; Candida albicans clinical yeast strain 1): 32 | Minimum inhibitory concentration ([9]; Candida albicans clinical yeast strain 2): 16 | Minimum inhibitory concentration ([9]; Candida albicans clinical yeast strain 3): 32 | Minimum inhibitory concentration ([9]; Candida albicans clinical yeast strain 4): 32 | Minimum inhibitory concentration ([9]; Candida albicans clinical yeast strain 5): 32 | Minimum inhibitory concentration [10]: 8 | MIC, Acinetobacter johnsonii strain 1 [11]: 4 µg/mL (≈ 1.86 µM) | MIC, Escherichia coli strain 1 [12]: 1 µg/mL (≈ 0.465 µM) | MIC, Escherichia coli strain 2 [12]: 4 µg/mL (≈ 1.86 µM) | MIC, Escherichia coli strain 3 [12]: 1 µg/mL (≈ 0.465 µM) | MIC, Escherichia coli strain 4 [12]: 1 µg/mL (≈ 0.465 µM) | MIC, Escherichia coli strain 5 [12]: 2 µg/mL (≈ 0.93 µM) | MICs against all the bacteria and yeasts tested [13]: 0.5 to 32 µg/mL | MIC, Klebsiella pneumoniae strain 1 [14]: 4 µg/mL (≈ 1.86 µM) | MIC, Klebsiella pneumoniae strain 2 [14]: 2 µg/mL (≈ 0.93 µM) | MIC, Klebsiella pneumoniae strain 3 [14]: 4 µg/mL (≈ 1.86 µM) | MIC, Klebsiella pneumoniae strain 4 [14]: 4 µg/mL (≈ 1.86 µM) | MIC, Klebsiella pneumoniae strain 5 [14]: 2 µg/mL (≈ 0.93 µM) | MIC, Pseudomonas aeruginosa strain 1 [15]: 4 µg/mL (≈ 1.86 µM) | MIC, Pseudomonas aeruginosa strain 2 [15]: 4 µg/mL (≈ 1.86 µM) | MIC, Pseudomonas aeruginosa strain 3 [15]: 4 µg/mL (≈ 1.86 µM) | MIC, Pseudomonas aeruginosa strain 4 [15]: 4 µg/mL (≈ 1.86 µM) | MIC, Pseudomonas aeruginosa strain 5 [15]: 4 µg/mL (≈ 1.86 µM)

NRIVQQRTSSR [Chain200]
Minimal inhibitory concentration (MIC), S. aureus (S. aureus [16]): 95 µM | Minimal inhibitory concentration (MIC), E. coli (E. coli): 95 µM | Minimum inhibitory concentration, Staphylococcus aureus (ATCC 25923) [17]: >128 µg/mL | Minimum inhibitory concentration, Escherichia coli (ATCC 25922) [18]: >128 µg/mL | Minimum inhibitory concentration, Klebsiella pneumoniae (ATCC 10031) [19]: >128 µg/mL | Minimum inhibitory concentration, Pseudomonas aeruginosa (ATCC 27853) [20]: >128 µg/mL

B1: En-MAP1: protein of 549 amino acids from an endophyte of Empetrum nigrum, GenBank accession number KC466596 (protein, listed as Empetrum nigrum)
chain: MRLVAHPVPDAPLYALMIKACSMGIPQPNDNLWKPRNPLLAKEEKTSKRGRTAPDTERALDLFREMTLRYNIRPTAEVYTAIIAACVKRDDMYDKGFGLFKKMVELERNRMSSEGHDSTSFAPTRATYNALLRGCARNKDLLRARWILAEMLRTAQAKWQEFMEKSKKGEEGVQEWELLEVEEMRPDTNTMAFLFYTYASHTTSSKAVPETEGKKELEGKAEERASEVTSVSPVSEPPEPMDESKLVYSLPTSSQAILREVTSLLDRIKSDQGQQSNLLSSVQINSKLLNSYIAVLSAHCRSSQVVERISEVVVGTKENPKSLFEETGTSVNGYTCFTVIDACGMMEHSPDTYHLACEMWQRWLSLVENATFHRENPLKAKEIGLDSRTISDCWSAMIRLHAKYNQVDEAMKLVHEFARLYPPASLFNSLTFEPSSTSSSSLSPRKGVQEISPLFSSTSLTHSIRGRDISRIQNTMSQDPTLQFRAVQILHLRLVELETRPKDLAYLSWLLKSYEHQLQPKRPKSLQGDLFTSRQAAYNRIVQQRTSSR
Antibacterial activity against S. aureus (S. aureus [21]; expressed, folded protein): no activity was observed | Antibacterial activity against S. aureus after trypsin digestion (S. aureus [21]; folded full protein digested with trypsin, data not shown): antibacterial activity was observed | Antibacterial activity against S. aureus after trypsin digestion (S. aureus [21]; trypsin digest of the unfolded protein): No activity was detected
